Results reported in patent US20050163737A1, “Deodorant cosmetic composition comprising a combination of zinc pidolate and an antiperspirant aluminum salt” (priority 2003, published 2005).

Legend:
[1] = Deodorant efficacy test: odor intensity of incubated underarm sweat, expert panel; design: species or system human; conditions: 24 hours at 37° C, vs control sweat
Protocol: Protocol of the Deodorant Efficacy Test
Collections of underarm sweat were taken in a sauna from 6 volunteers; the samples of individual sweat, were stored in ice for a few hours, and were at this point virtually odorless. They were then mixed together and divided into 1 ml aliquots. The active agents were added to these aliquots, which were then incubated in an oven at 37° C. After incubation for 24 hours, a panel of experts evaluated the intensity of the odor in comparison with a control sample: 1 ml of sweat incubated without agent.
The results were expressed as a percentage of variation of the intensity of the odor in comparison with the control sweat sample (mean of the percentages of variation at T24h).

[2] = cited from earlier work

Oc1cc(Cl)ccc1Oc1ccc(Cl)cc1Cl [(B), 2,4,4′-trichloro-2′-hydroxydiphenyl ether]
% of Reduction in the Intensity of the Odor ([1]; 0.4 mg AM/ml of sweat (total)): −49% | Solubility in water [2]: insoluble

aluminum chlorohydrate [ACH]
% of Reduction in the Intensity of the Odor ([1]; 0.1 mg AM/ml of sweat): −37% | % of Reduction in the Intensity of the Odor ([1]; 0.2 mg AM/ml of sweat (total)): −47%

zinc pidolate [(A)]
% of Reduction in the Intensity of the Odor ([1]; 0.1 mg AM/ml of sweat): −47% | % of Reduction in the Intensity of the Odor ([1]; 0.2 mg AM/ml of sweat (total)): −47%

zinc ricinoleate [(C)]
% of Reduction in the Intensity of the Odor ([1]; 0.3 mg AM/ml of sweat): −4%
